Earlier results in PMC12704579, “New Anticancer 4‐Aryldihydropyrimidinone‐5‐Carboxylates Targeting Hsp90” (Chemical Biology & Drug Design, 2025).

What was measured:
[1] = tested on: Bcl3-p50; design: method as in Soukupová [2013]; settings: ref Soukupová [2013]; cited from earlier work
[2] = tested on: HCC1954 cells; design: method as in Bordoni [2016]; settings: invasive breast cancer cell line HCC1954; ref Bordoni [2016]; cited from earlier work

**Q.** With CCOc1cc(C2NC(=O)NC(C)=C2C(=O)OCc2ccc3c(c2)OCO3)ccc1O (centres unmarked) [Compound 1] as the compound, how does the “Activity within the Bcl3-binding assays” value [1] read?
**A.** Its value is “not active”.

**Q.** What about the “Inhibitory activity in colony forming assay, HCC1954” value [2] of the same compound?
**A.** Its value is “potent inhibitory activity”.
